Data published in ChEMBL document CHEMBL4152250, “Antibacterial and anti-TB tat-peptidomimetics with improved efficacy and half-life” (Eur J Med Chem, 2018).
Converted amounts (≈) assume the structure as drawn. Numbered stars: 1 amine (or outer) side, 2 acyl side, 3 side chain; on linkers, the order of the positions; unused ones are H or OH. Square brackets hold non-standard residues; d marks the D form. Peptide text beside a SMILES is read from it. Pro(N-(CH2)3Gua,cis-4-NH-) = N=C(N)NCCCN1C[C@@H](N[*:1])C[C@H]1C(=O)[*:2]; Pro(cis-4-guanidino) = NC(N)=N[C@@H]1CN[C@H](C(=O)O)C1; X1 = NCCCN1C[C@@H](N[*:1])C[C@H]1C(=O)[*:2]; Ethylenediamine = C(CN[*:2])N[*:1]; βAla = NCCC(=O)O

Key:
[1] = system: Mycobacterium tuberculosis; test: Antitubercular activity against multidrug-resistant dormant stage of Mycobacterium tuberculosis H37Ra after 12 days by XRMA; type: functional, organism-based; conditions: 288 h
[2] = system: Mycobacterium tuberculosis; test: Antitubercular activity against multidrug-resistant active stage of Mycobacterium tuberculosis H37Ra after 8 days by XRMA; type: functional, organism-based; conditions: 192 h

| SMILES | IC50 [1] | IC50 [2] | MIC [1] | MIC [2] |
| --- | --- | --- | --- | --- |
| CC(=O)N[C@@H](Cc1ccccc1)C(=O)NCC(=O)N[C@@H](CCCNC(=N)N)C(=O)N[C@@H](CCCCN)C(=O)N[C@@H](CCCCN)C(=O)N[C@@H](CCCNC(=N)N)C(=O)N[C@@H](CCCNC(=N)N)C(=O)N[C@@H](CCC(N)=O)C(=O)N[C@@H](CCCNC(=N)N)C(=O)N[C@@H](CCCNC(=N)N)C(=O)N[C@@H](CCCNC(=N)N)C(N)=O | 19200 nM | > 60000 nM |  |  |
| CC(=O)N[C@@H](Cc1ccccc1)C(=O)NCC(=O)N[C@H]1C[C@@H](C(=O)N[C@@H](CCCCN)C(=O)N[C@@H](CCCCN)C(=O)N[C@@H](CCCNC(=N)N)C(=O)N[C@H]2C[C@@H](C(=O)N[C@@H](CCC(N)=O)C(=O)N[C@H]3C[C@@H](C(=O)N[C@@H](CCCNC(=N)N)C(=O)N[C@H]4C[C@@H](C(=O)NCCC(N)=O)N(CCCNC(=N)N)C4)N(CCCNC(=N)N)C3)N(CCCNC(=N)N)C2)N(CCCNC(=N)N)C1 | 2360 nM | 3100 nM | 11.7 µM (≈ 22 µg/mL) | 24.6 µM (≈ 46.2 µg/mL) |
| CC(=O)N[C@@H](Cc1ccccc1)C(=O)NCC(=O)N[C@@H](CCCNC(=N)N)C(=O)N[C@@H](CCCCN)C(=O)N[C@@H](CCCCN)C(=O)N[C@@H](CCCNC(=N)N)C(=O)N[C@@H](CCCNC(=N)N)C(=O)N[C@@H](CCC(N)=O)C(=O)N[C@@H](CCCNC(=N)N)C(=O)N[C@@H](CCCNC(=N)N)C(=O)N[C@H]1C[C@@H](C(=O)NCCC(N)=O)N(CCCNC(=N)N)C1 (Ac-FGRKKRRQRR[Pro(N-(CH2)3Gua,cis-4-NH-)][βAla]-NH2) | 1280 nM | 1850 nM | 12 µM (≈ 20.5 µg/mL) | 22.1 µM (≈ 37.8 µg/mL) |
| CC(=O)N[C@@H](Cc1ccccc1)C(=O)NCC(=O)N[C@@H](CCCNC(=N)N)C(=O)N[C@@H](CCCCN)C(=O)N[C@@H](CCCCN)C(=O)N[C@@H](CCCNC(=N)N)C(=O)N[C@@H](CCCNC(=N)N)C(=O)N[C@@H](CCC(N)=O)C(=O)N[C@@H](CCCNC(=N)N)C(=O)N[C@@H](CCCNC(=N)N)C(=O)N1C[C@@H](NC(=N)N)C[C@H]1C(=O)NCCC(N)=O (Ac-FGRKKRRQRR[Pro(cis-4-guanidino)][βAla]-NH2) | 3100 nM | 3100 nM | 12.9 µM (≈ 21.3 µg/mL) | 22.5 µM (≈ 37.2 µg/mL) |
| CC(=O)N[C@@H](Cc1ccccc1)C(=O)NCC(=O)N[C@@H](CCCNC(=N)N)C(=O)N[C@@H](CCCCN)C(=O)N[C@@H](CCCCN)C(=O)N[C@H]1C[C@@H](C(=O)N[C@@H](CCCNC(=N)N)C(=O)N[C@@H](CCC(N)=O)C(=O)N[C@@H](CCCNC(=N)N)C(=O)N[C@@H](CCCNC(=N)N)C(=O)N[C@@H](CCCNC(=N)N)C(=O)NCCC(N)=O)N(CCCNC(=N)N)C1 (Ac-FGRKK[Pro(N-(CH2)3Gua,cis-4-NH-)]RQRRR[βAla]-NH2) | 1100 nM | 2000 nM | 10.6 µM (≈ 18.1 µg/mL) | 13 µM (≈ 22.2 µg/mL) |
| CC(=O)N[C@@H](Cc1ccccc1)C(=O)NCC(=O)N[C@@H](CCCNC(=N)N)C(=O)N[C@@H](CCCCN)C(=O)N[C@@H](CCCCN)C(=O)N1C[C@@H](NC(=N)N)C[C@H]1C(=O)N[C@@H](CCCNC(=N)N)C(=O)N[C@@H](CCC(N)=O)C(=O)N[C@@H](CCCNC(=N)N)C(=O)N[C@@H](CCCNC(=N)N)C(=O)N[C@@H](CCCNC(=N)N)C(=O)NCCC(N)=O (Ac-FGRKK[Pro(cis-4-guanidino)]RQRRR[βAla]-NH2) | 3270 nM | 2680 nM | 14.5 µM (≈ 24 µg/mL) | 15.1 µM (≈ 25 µg/mL) |
| CC(=O)N[C@@H](Cc1ccccc1)C(=O)NCC(=O)N[C@H]1C[C@@H](C(=O)N[C@@H](CCCCN)C(=O)N[C@@H](CCCCN)C(=O)N[C@@H](CCCNC(=N)N)C(=O)N[C@H]2C[C@@H](C(=O)N[C@@H](CCC(N)=O)C(=O)N[C@@H](CCCNC(=N)N)C(=O)N[C@@H](CCCNC(=N)N)C(=O)N[C@H]3C[C@@H](C(=O)NCCC(N)=O)N(CCCNC(=N)N)C3)N(CCCNC(=N)N)C2)N(CCCNC(=N)N)C1 (Ac-FG[Pro(N-(CH2)3Gua,cis-4-NH-)]KKR[Pro(N-(CH2)3Gua,cis-4-NH-)]QRR[Pro(N-(CH2)3Gua,cis-4-NH-)][βAla]-NH2) | 670 nM | 6400 nM | 10.4 µM (≈ 18.9 µg/mL) | 25.3 µM (≈ 46.1 µg/mL) |
| CC(=O)N[C@@H](Cc1ccccc1)C(=O)NCC(=O)N1C[C@@H](NC(=N)N)C[C@H]1C(=O)N[C@@H](CCCCN)C(=O)N[C@@H](CCCCN)C(=O)N[C@@H](CCCNC(=N)N)C(=O)N1C[C@@H](NC(=N)N)C[C@H]1C(=O)N[C@@H](CCC(N)=O)C(=O)N[C@@H](CCCNC(=N)N)C(=O)N[C@@H](CCCNC(=N)N)C(=O)N1C[C@@H](NC(=N)N)C[C@H]1C(=O)NCCC(N)=O (Ac-FG[Pro(cis-4-guanidino)]KKR[Pro(cis-4-guanidino)]QRR[Pro(cis-4-guanidino)][βAla]-NH2) | 500 nM | 1320 nM | 6 µM (≈ 9.9 µg/mL) | 15 µM (≈ 24.7 µg/mL) |
| CC(=O)N[C@@H](Cc1ccccc1)C(=O)NCC(=O)N1C[C@@H](NC(=N)N)C[C@H]1C(=O)N[C@@H](CCCCN)C(=O)N[C@@H](CCCCN)C(=O)N[C@@H](CCCNC(=N)N)C(=O)N1C[C@@H](NC(=N)N)C[C@H]1C(=O)N[C@@H](CCC(N)=O)C(=O)N1C[C@@H](NC(=N)N)C[C@H]1C(=O)N[C@@H](CCCNC(=N)N)C(=O)N1C[C@@H](NC(=N)N)C[C@H]1C(=O)NCCC(N)=O (Ac-FG[Pro(cis-4-guanidino)]KKR[Pro(cis-4-guanidino)]Q[Pro(cis-4-guanidino)]R[Pro(cis-4-guanidino)][βAla]-NH2) | 1900 nM | 10800 nM | 21.5 µM (≈ 35.4 µg/mL) | 26.4 µM (≈ 43.5 µg/mL) |
| CC(=O)N[C@@H](Cc1ccccc1)C(=O)NCC(=O)N[C@H]1C[C@@H](C(=O)N[C@@H](CCCCN)C(=O)N[C@@H](CCCCN)C(=O)N[C@@H](CCCNC(=N)N)C(=O)N[C@H]2C[C@@H](C(=O)N[C@@H](CCC(N)=O)C(=O)N[C@@H](CCCNC(=N)N)C(=O)N[C@@H](CCCNC(=N)N)C(=O)N[C@H]3C[C@@H](C(=O)NCCC(N)=O)N(CCCN)C3)N(CCCN)C2)N(CCCN)C1 (Ac-FG[X1]KKR[X1]QRR[X1][βAla]-NH2) | 1460 nM | 2600 nM | 14 µM (≈ 23.7 µg/mL) | 23.5 µM (≈ 39.8 µg/mL) |
| CC(=O)N[C@@H](Cc1ccccc1)C(=O)NCC(=O)N[C@H]1C[C@@H](C(=O)N[C@@H](CCCCN)C(=O)N[C@@H](CCCCN)C(=O)N[C@@H](CCCNC(=N)N)C(=O)N[C@H]2C[C@@H](C(=O)N[C@@H](CCC(N)=O)C(=O)N[C@H]3C[C@@H](C(=O)N[C@@H](CCCNC(=N)N)C(=O)N[C@H]4C[C@@H](C(=O)NCCN)N(CCCN)C4)N(CCCN)C3)N(CCCN)C2)N(CCCN)C1 (Ac-FG[X1]KKR[X1]Q[X1]R[X1]-Ethylenediamine) | 1080 nM | 2800 nM | 6.6 µM (≈ 11.1 µg/mL) | 12 µM (≈ 20.2 µg/mL) |
| NC(=O)c1cnccn1 [PYRAZINAMIDE] |  |  | > 100 µM | > 100 µM |
| CO[C@H]1/C=C/O[C@@]2(C)Oc3c(C)c(O)c4c(O)c(c(/C=N/N5CCN(C)CC5)c(O)c4c3C2=O)NC(=O)/C(C)=C\C=C\[C@H](C)[C@H](O)[C@@H](C)[C@@H](O)[C@@H](C)[C@H](OC(C)=O)[C@@H]1C [RIFAMPIN] |  |  | > 12.1 µM | > 12.1 µM |
